Where a name gives a salt, the structure may show the parent alone. Read-outs that look alike come from different tables or passages of the source.
Tests used:
[1] = molecular target: T1, human AOC3 enzyme (recombinant CHO cells) (Homo sapiens, UniProt Q16853); assay: AOC3 biochemical assay (MAO-Glo), human enzyme
T1 construct: expressed in transfected cells; host or cells: CHO cells
T1 sequence (Q16853 1-763): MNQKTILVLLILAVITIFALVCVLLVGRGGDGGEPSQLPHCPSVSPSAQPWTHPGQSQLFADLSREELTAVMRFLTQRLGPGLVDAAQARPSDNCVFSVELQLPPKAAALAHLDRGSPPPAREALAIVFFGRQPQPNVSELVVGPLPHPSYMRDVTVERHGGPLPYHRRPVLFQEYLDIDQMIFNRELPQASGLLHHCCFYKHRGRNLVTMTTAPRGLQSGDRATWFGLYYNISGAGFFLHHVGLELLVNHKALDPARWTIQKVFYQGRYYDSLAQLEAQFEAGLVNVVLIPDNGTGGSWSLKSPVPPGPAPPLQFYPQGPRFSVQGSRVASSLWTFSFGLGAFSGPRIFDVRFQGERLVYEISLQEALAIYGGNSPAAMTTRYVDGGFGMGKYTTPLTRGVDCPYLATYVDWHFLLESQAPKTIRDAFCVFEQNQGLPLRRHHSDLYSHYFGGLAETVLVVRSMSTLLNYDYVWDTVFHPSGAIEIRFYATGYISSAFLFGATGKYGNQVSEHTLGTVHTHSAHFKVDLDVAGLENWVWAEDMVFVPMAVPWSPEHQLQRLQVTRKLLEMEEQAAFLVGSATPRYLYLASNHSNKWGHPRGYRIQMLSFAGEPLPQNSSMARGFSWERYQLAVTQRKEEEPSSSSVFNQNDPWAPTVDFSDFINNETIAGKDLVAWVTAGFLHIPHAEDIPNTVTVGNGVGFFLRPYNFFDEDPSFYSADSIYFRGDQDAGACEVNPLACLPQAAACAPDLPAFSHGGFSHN
Description: The MAO-Glo™ Assay (commercially available from PROMEGA, #V1402) provides a sensitive method for the measurement of monoamine oxidase (MAO) activity (Valley, M. P. et al., 2006, Anal. Biochem. 359: 238-246) from a variety of tissues, biofluids or recombinant expressed or purified enzymes. As substrate a derivate of the beetle luciferin ((4S)-4,5-dihydro-2-(6-hydroxybenzothiazolyl)-4-thiazole-carboxylic acid) is used, which is oxidized at a primary amine moiety. After a spontaneous elimination and a catalyzed esterase reaction, the turnover of luciferin by the luciferase is recorded as a signal of AOC3 activity.
An aliquot of 3 μL of the compound dilution is added to a 384 well plate (Optiplate, PS, flat bottom, white, PERKIN ELMER, #6007290) with a final DMSO concentration of 6.6%. Recombinant CHO cells, overexpressing the human (1500 cells/well), mouse (1000 cells/well) or rat (500 cells/well) AOC3 enzyme are diluted in reaction buffer and added in a volume of 15 μL to the wells. After incubation for 20 minutes at 37° C., 2 μL of MAO substrate (dissolved in DMSO at 16 mM, adjusted to assay concentration in reaction buffer to a final assay concentration of 20 μM) is added and further incubated for 60 minutes at 37° C. The turnover of the substrate is determined by the addition of 20 μL of the detection-mix which was generated by the addition of reconstitution buffer with esterase (PROMEGA, #V1402) to the luciferin detection reagent (PROMEGA, #V1402). After an incubation period of 20 minutes, the luminescent signal is measured with Envision 2104 Multilabel Reader (PERKIN ELMER).

AOC1 = molecular target: T2, AOC1 (Homo sapiens, UniProt P19801); assay: AOC1 biochemical assay (Amplex Red)
T2 construct: purchased R&D Systems 8297-AO-010
T2 sequence (P19801 20-751): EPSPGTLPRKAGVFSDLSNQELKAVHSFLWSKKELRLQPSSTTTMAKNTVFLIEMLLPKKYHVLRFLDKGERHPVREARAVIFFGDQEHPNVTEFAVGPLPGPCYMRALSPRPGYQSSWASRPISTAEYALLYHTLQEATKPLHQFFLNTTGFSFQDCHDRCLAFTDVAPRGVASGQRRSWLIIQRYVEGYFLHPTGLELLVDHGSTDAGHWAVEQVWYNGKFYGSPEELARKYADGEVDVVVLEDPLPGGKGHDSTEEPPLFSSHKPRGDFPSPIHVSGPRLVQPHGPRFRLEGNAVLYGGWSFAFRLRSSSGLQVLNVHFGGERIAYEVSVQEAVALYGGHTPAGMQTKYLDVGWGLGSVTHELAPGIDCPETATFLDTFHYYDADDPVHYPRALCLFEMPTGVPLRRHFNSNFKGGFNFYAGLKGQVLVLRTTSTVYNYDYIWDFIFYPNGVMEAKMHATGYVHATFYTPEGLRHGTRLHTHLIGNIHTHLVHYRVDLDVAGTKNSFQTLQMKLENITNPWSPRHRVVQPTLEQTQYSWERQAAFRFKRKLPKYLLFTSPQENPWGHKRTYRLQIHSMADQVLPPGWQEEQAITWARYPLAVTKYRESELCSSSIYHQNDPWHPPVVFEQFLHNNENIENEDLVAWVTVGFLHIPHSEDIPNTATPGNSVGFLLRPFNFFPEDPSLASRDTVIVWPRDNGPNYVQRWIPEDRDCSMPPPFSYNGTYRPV
Protocol: The Amplex® Red Assay (available from Thermo Fisher Scientific) provides a sensitive method for the detection of H2O2 generated during enzymatic reactions like the amine oxidation catalyzed by AOC1. The assay reagent is a colorless substrate (N-acetyl-3,7-dihydroxyphenoxazine) that reacts in a 1:1 stoichiometry with hydrogen peroxide (H2O2) to produce the fluorescent dye resorufin (7-hydroxyphenoxazin-3-one, excitation/emission maxima=570/585 nm).
An aliquot of 3 μL of the compound dilution is added to a 384 well plate (Optiplate, PS, flat bottom F, black, PERKIN ELMER, #6007270) in a DMSO concentration of 6.6%.
An AOC1 enzyme aliquot (#8297-AO-010, R&D Systems) is thawed on ice, diluted in reaction buffer and added in a volume of 7 μL to the wells to give a final assay concentration of 1 ng/well. After incubation of inhibitor and enzyme for 30 minutes at 37° C., the enzymatic reaction is started with the addition of 10 μL of Amplex® Red reaction mix (final assay concentration: 100 mM sodiumphosphate, 120 μM Amplex® Red reagent (#A22177 Molecular Probes), 1.5 U/mL Horseradish Peroxidase (#P8375 Sigma-Aldrich), 200 μM putrescine (#P7505 Sigma-Alrdich), 0.05% Pluronic F-127 (#P3000MP Sigma-Aldrich), pH 7.4, 37° C.).
After an incubation for 30 minutes at 37° C. the turnover of the substrate is determined directly (or after the addition of an excess of an amine-oxidase inhibitor) with a fluorescence reader (Ex 540 nm/Em 590 nm) like Envision 2104 Multilabel Reader (PERKIN ELMER).

[2] = comparison table, read-out: IC50 AOC3
[3] = comparison table, read-out: IC50 AOC1

| IC50 ([1]; read-out: AOC3 IC50) | IC50 (AOC1; read-out: AOC1 IC50) | SMILES | also measured |
| --- | --- | --- | --- |
| 33 nM | 13000 nM | CC1(C(=O)NC2CCOCC2)CCN(S(=O)(=O)c2ccc(OC/C(=C\F)CN)nc2)CC1 [Example 48, 1-[6-((Z)-2-Aminomethyl-3-fluoro-allyloxy)-pyridine-3-sulfonyl]-4-methyl-piperidine-4-carboxylic acid (tetrahydropyran-4-yl)-amide trifluoroacetate] |  |
| 8 nM | 553 nM | CC1(C(N)=O)CCN(S(=O)(=O)c2ccc(OC/C(=C\F)CN)nc2)CC1 [Example 49] |  |
| 8 nM | 5310 nM | NC/C(=C/F)COc1ccc(S(=O)(=O)N2CCC(CC(N)=O)CC2)cn1 [Example 50] |  |
| 12 nM | 10300 nM | CC(F)(F)CNC(=O)CC1CCN(S(=O)(=O)c2ccc(OC/C(=C\F)CN)nc2)CC1 [Example 51] |  |
| 17 nM | 15100 nM | NC/C(=C/F)COc1ccc(S(=O)(=O)N2CCC(CC(=O)NCCO)CC2)cn1 [Example 52] |  |
| 17 nM | 14600 nM | CC1(C(=O)NCCF)CCN(S(=O)(=O)c2ccc(OC/C(=C\F)CN)nc2)CC1 [Example 53] |  |
| 19 nM | 10500 nM | COCCNC(=O)CC1CCN(S(=O)(=O)c2ccc(OC/C(=C\F)CN)nc2)CC1 [Example 54] |  |
| 17 nM | 27100 nM | NC/C(=C/F)COc1ccc(S(=O)(=O)N2CCC(CC(=O)N3CC(O)C3)CC2)cn1 [Example 55] |  |
| 21 nM | 11500 nM | CC1(C(=O)NC2CC2)CCN(S(=O)(=O)c2ccc(OC/C(=C\F)CN)nc2)CC1 [Example 56] |  |

Continued, compound first:

| SMILES | IC50 ([1]; read-out: AOC3 IC50) | IC50 (AOC1; read-out: AOC1 IC50) | also measured |
| --- | --- | --- | --- |
| COC(=O)[C@H]1[C@@H]2CN(S(=O)(=O)c3ccc(OC/C(=C\F)CN)nc3)C[C@@H]21 [Example 35, trans-3-[6-((Z)-2-Aminomethyl-3-fluoro-allyloxy)-pyridine-3-sulfonyl]-3-aza-bicyclo[3.1.0]hexane-6-carboxylic acid methyl ester trifluoroacetate] | 3 nM | 1840 nM |  |
| COC(=O)C1(C)CCN(S(=O)(=O)c2ccc(OC/C(=C\F)CN)nc2)CC1 [Example 36] | 4 nM | 1380 nM |  |
| CNC(=O)C1CCN(S(=O)(=O)c2ccc(OC/C(=C\F)CN)nc2)CC1 [Example 37, trifluoroacetate] | 10 nM | 9880 nM |  |
| NC/C(=C/F)COc1ccc(S(=O)(=O)N2CCCCC2)cn1 [Example 38] | 3 nM | 235 nM |  |
| NC/C(=C/F)COc1ccc(S(=O)(=O)N2CC[C@H](C(N)=O)C2)cn1 [Example 39] | 6 nM | 909 nM |  |
| COC1CCN(S(=O)(=O)c2ccc(OC/C(=C\F)CN)nc2)CC1 [Example 40] | 4 nM | 781 nM |  |
| CC1(O)CCN(S(=O)(=O)c2ccc(OC/C(=C\F)CN)nc2)CC1 [Example 41] | 10 nM | 133 nM |  |
| NC/C(=C/F)COc1ccc(S(=O)(=O)N2CCC(O)(C(F)(F)F)CC2)cn1 [Example 42] | 6 nM | 2360 nM |  |
| NC/C(=C/F)COc1ccc(S(=O)(=O)N2CC[C@H](O)C2)cn1 [Example 43, (S)-1-[6-(Z)-2-Aminomethyl-3-fluoro-allyloxy]-pyridine-3-sulfonyl]-pyrrolidin-3-ol trifluoroacetate] | 10 nM |  | IC50 (AOC1; read-out: IC50 AOC1): 964 nM; factor less active on AOC1 than the comparison compound (AOC1; versus the Z isomer of example 6 of WO 2018/027892): 14 |
| NC/C(=C/F)COc1ccc(S(=O)(=O)N2CCC(CC(=O)O)CC2)cn1 [Example 44, trifluoroacetate] | 110 nM | > 50000 nM |  |
| NC/C(=C/F)COc1ccc(S(=O)(=O)N2C[C@@H]3[C@H](C2)[C@H]3C(=O)O)cn1 [Example 45, trans-3-[6-((Z)-2-Aminomethyl-3-fluoro-allyloxy)-pyridine-3-sulfonyl]-3-aza-bicyclo[3.1.0]hexane-6-carboxylic acid trifluoroacetate] | 67 nM | 37600 nM |  |
| NC/C(=C/F)COc1ccc(S(=O)(=O)N2CCC(C(=O)O)CC2)cn1 [Example 46] | 493 nM | > 50000 nM |  |
| CC1(C(=O)O)CCN(S(=O)(=O)c2ccc(OC/C(=C\F)CN)nc2)CC1 [Example 47] | 548 nM | > 50000 nM |  |
| COC1CN(S(=O)(=O)c2ccc(OC/C(=C\F)CN)cc2)C1 [Reference compound A, reference compound] |  |  | IC50 [1, 2]: 3 nM; IC50 (AOC1; [3]): 1750 nM |
| NC/C(=C/F)COc1ccc(S(=O)(=O)N2CC[C@H](O)C2)cc1 [Reference compound B, reference compound] |  |  | IC50 [1, 2]: 6 nM; IC50 (AOC1; [3]): 1210 nM |
| NC/C(=C/F)COc1cnc(N2CC[C@H](O)C2)nc1 [Z isomer of example 6 of WO 2018/027892, reference compound] |  |  | IC50 [1, 2]: 7 nM; IC50 (AOC1; read-out: IC50 AOC1): 70 nM |
| NC/C(=C/F)COc1cnc(N2CCC(O)CC2)nc1 [reference compound] |  |  | IC50 [1, 2]: 4 nM; IC50 (AOC1; [3]): 66 nM |

Source: US12213970B2, “Pyridinyl sulfonamide derivatives, pharmaceutical compositions and uses thereof” (Boehringer Ingelheim International GmbH, priority 2018, dated 2025)
